Consider 1 compound from patent publication US6524625B2, “Physiologically active extract obtained from indigo plant polygonum tinctorium” (Kabushiki Kaisha Hayashibara Seibutsu Kagaku Kenkyuto, priority 1998, dated 2003).

The subject of assay [1] is HLC-1 cells. The assay is described as follows: Antitumor action: growth inhibition, methylene blue staining. It is filed as cell-based. Particulars: Homo sapiens, 48 h, read-out: 50% growth inhibitory concentration. The procedure:
(§1) Solutions in each well were serially diluted with a fresh preparation of the same RPMI1640 medium (pH 7.2) as used in the above. […] Each cell suspension was distributed to a microplate in a volume of 50 μl/well and incubated at 37° C. for 48 hours in a 5 v/v % CO2 incubator. To each microplate, a 25 v/v % aqueous glutaraldehyde solution was added in a volume of 20 μl/well, and the microplate was allowed to stand for 15 min to fix the cells. Then, the cells adhered to the wells were washed with water, admixed with a 0.05 w/v % aqueous methylene blue solution in a volume of 100 μl/well, and further allowed to stand for 15 min to stain the cells. Thereafter, an excessive amount of the staining solution was removed from the wells by washing with water, and the cells were dried, admixed with 300 μl/well of 0.33 N hydrochloric acid, stirred sufficiently, and measured for absorption at a wavelength of 620 nm. In parallel, as a control, a system free of a test sample was provided and treated similarly as in the test samples. […]

The next assay deals with HGC-27 cells. The assay is described as above. It is filed as cell-based. The following applies: Homo sapiens, HGC-27, 48 h, read-out: 50% growth inhibitory concentration. The procedure:
as §1

Another assay relates to HL-60 cells. The assay is described as above. Particulars: Homo sapiens, HL-60, 48 h, read-out: 50% growth inhibitory concentration. It is filed as cell-based. How it is done: as §1
Assay [2] concerns HL-60 cells, HGC-27 cells, HLC-1 cells. In words: Antitumor action, comparison over the tumor cells of Table 10. It is filed as cell-based, human. The following applies: from the 50% growth inhibitory concentrations of Table 10. The text has this:
Solutions in each well were serially diluted with a fresh preparation of the same RPMI1640 medium (pH 7.2) as used in the above.
HL-60 cells (ATCC CCL-240) derived from a patient with acute promyelocytic leukemia, HGC-27 cells (RCB0500) derived from a patient with gastric cancer, and HLC-1 cells (RCB0083) derived from a patient with lung adenocarcinoma were respectively suspended in fresh preparations of the same RPMI1640 medium (pH 7.2) as used in the above to give respective cell concentrations of 4×10^5 cells/ml, 4×10^5 cells/ml, and 2×10^6 cells/ml. Each cell suspension was distributed to a microplate in a volume of 50 μl/well and incubated at 37° C. for 48 hours in a 5 v/v % CO2 incubator. To each microplate, a 25 v/v % aqueous glutaraldehyde solution was added in a volume of 20 μl/well, and the microplate was allowed to stand for 15 min to fix the cells. Then, the cells adhered to the wells were washed with water, admixed with a 0.05 w/v % aqueous methylene blue solution in a volume of 100 μl/well, and further allowed to stand for 15 min to stain the cells. Thereafter, an excessive amount of the staining solution was removed from the wells by washing with water, and the cells were dried, admixed with 300 μl/well of 0.33 N hydrochloric acid, stirred sufficiently, and measured for absorption at a wavelength of 620 nm. […]

For assay [3], the system named is Pseudomonas aeruginosa (IFO 3453). In words: Antiseptic action: MIC, agar plate dilution method. It is filed as cell-based. Particulars: Pseudomonas aeruginosa, IFO3453, read-out: Minimum inhibitory concentration.
Assay [4] deals with Staphylococcus aureus (ATCC 6538P). In words: Antiseptic action: MIC, agar plate dilution method. It is filed as cell-based. The following applies: Staphylococcus aureus, ATCC6538P, read-out: Minimum inhibitory concentration.
For assay [5], the system named is HLC-1 cells. In words: Apoptosis controlling action, propidium iodide flow cytometry. It is filed as cell-based, human. The following applies: HLC-1 cells (1 × 10^5 cells/ml). The procedure: (§2) The solution was distributed to a microplate in one milliliter per well, and the solution in each well was diluted in series with a fresh preparation of the same medium as used in the above.
(§3) HL-60 cells, ATCC CCL-240, derived from a patient with acute promyelocytic leukemia; U-937 cells, ATCC CRL-1593.2, derived from a patient with human histiocytic lymphoma; HGC-27 cells, RCB0500, derived from a patient with gastric cancer; HLC-1 cells, RCB0083, derived from a patient with lung adenocarcinoma; and C6 cells, ATCC CCL-107, derived from rat glial tumor, were respectively suspended in RPMI1640 medium (pH 7.2) to give a cell density of 1×10^6 cells/ml or 2×10^5 cells/ml. To the microplate, containing a one milliliter dilution of 20, 10 or 5.0 μg/ml of Compound 1, was added one milliliter per well of either of the above cell suspensions and used for test systems. All the test systems were made duplex and respectively subjected to 24- and 48-hour incubations in a 5 v/v % CO2 incubator at 37° C. A system free of Compound 1 was provided and treated similarly as above and used for control.
(§4) According to the method by I. Nicoletti et al. in Journal of Immunological Methods, Vol. 139, pp. 271-279 (1991), the apoptosis-induced cells in the test systems and control were stained by propidium iodide and determined for the percentage of the stained cells to the total cells in such a manner that transferring each of the cultures to polypropylene tubes, centrifuging the tubes, removing the resulting supernatants, washing the cells' sediments with phosphate buffered saline containing 0.3 v/v % calf serum albumin, and further centrifuging the washed cells to remove supernatants. The newly formed sediments were respectively mixed with 50 μg/ml of propidium iodide commercialized by Sigma Chemical Company, St. Louis, Mo., USA, 0.1 w/v % sodium citrate, and0.1 w/v % “TRITON X-100”, a surfactant commercialized by Sigma Chemical Company, St. Louis, Mo., USA, in respective volumes of 1.5 ml to stain the cells by propidium iodide. The stained cells were stored at 4° C. in the dark overnight. The stained cells of each test system were analyzed on “EPICS PROFILE II”, a flow cytometry commercialized by Beckman Coulter, Inc., CA, USA. Based on the data the percentage of the stained cells to the total cells in each test system was measured for apoptosis occurrence.
On the technique in general: A flow cytometer gives signals particle by particle.

The next assay concerns C6 cells. The assay is described as above. It is filed as cell-based, rat. The following applies: C6 cells (1 × 10^5 cells/ml). How it is done: as §2, §3, §4
The test system of assay [6] is Bacillus cereus (IFO 3466). In words: Antiseptic action: MIC, agar plate dilution method. It is filed as cell-based. Particulars: Bacillus cereus, IFO3466, read-out: Minimum inhibitory concentration.
For assay [7], the system named is vesicular stomatitis virus (VSV). The assay is described as follows: microbe, parasite or virus in culture. It is filed as cell-based. Particulars: L929, 24 h, read-out: 50% Growth inhibitory concentration.

Values after ≈ are worked out from the molar mass of the structure shown. A value given as a limit tells only on which side of the number the result lay.

In the case of `O=C1c2ccccc2-n2c1nc1ccccc1c2=O` [Compound 1, 6,12-dihydro-6,12-dioxoindolo[2,1-b]quinazoline], the IC50 was found to be 2.2 µg/mL (≈ 8.86 µM) in the assay with HLC-1 cells [1], 1.5 µg/mL (≈ 6.04 µM) in the assay on HGC-27 cells, 4.2 µg/mL (≈ 16.9 µM) with HL-60 cells and 13 µg/mL (≈ 52.4 µM) in [7]. Further, the “Antitumor action relative to Compound 2” value in assay [2] is given as not below 10 times. For the same compound, the MIC in assay [3], in assay [4] and in assay [6] was 39 µg/mL (≈ 157 µM) each time. In addition, the Apoptosis occurrence with HLC-1 cells [5] (24 hours, 2.5 μg/ml, control 2.7) is 3.7%; with HLC-1 cells [5] (24 hours, 5.0 μg/ml, control 2.7) it was 4.2%; in the assay with HLC-1 cells [5] (24 hours, 10 μg/ml, control 2.7) it was 8.1%; in the assay on HLC-1 cells [5] (48 hours, 2.5 μg/ml, control 1.5), 5.8%; in the assay on HLC-1 cells [5] (48 hours, 5.0 μg/ml, control 1.5), 7.3%; in the assay with HLC-1 cells [5] (48 hours, 10 μg/ml, control 1.5), 21.8%. In addition, the Apoptosis occurrence in the assay with C6 cells (24 hours, 2.5 μg/ml, control 0.3) is on record as 15.9%; in the assay on C6 cells (24 hours, 5.0 μg/ml, control 0.3), 18.4%; in the assay on C6 cells (24 hours, 10 μg/ml, control 0.3) it was 27.6%; with C6 cells (48 hours, 2.5 μg/ml, control 0.4), 38.4%; with C6 cells (48 hours, 5.0 μg/ml, control 0.4), 64.8%; in the assay with C6 cells (48 hours, 10 μg/ml, control 0.4), 67.1%.
